Some test systems named below: SF-295 CNS; BT-549 breast; RPMI-8226 leukemia; MCF7 breast; OVCAR-8 ovarian; SR leukemia; MALME-3M melanoma; NCI-H23 lung; OVCAR-4 ovarian; SK-MEL-5 melanoma.
Common to all, as to assay: inhibition of tumour cell growth, NCI panel, 48 h

Each structure is given as a SMILES string.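 Tested at 5 concentrations; 48 h exposure; 96-well plates; endpoints linearly interpolated, else capped at highest concentration. The concentration for 50% growth inhibition is given as GI50. TGI marks complete inhibition of growth.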 Some results are limits rather than exact numbers.

Consider `N=C(N)SCc1ccc([N+](=O)[O-])cc1[N+](=O)[O-]`, for which the GI50 in the assay with SF-295 CNS was 31.3 µM; in the assay on BT-549 breast, 7.35 µM; in the assay with RPMI-8226 leukemia it was 5.26 µM; in the assay on MCF7 breast, 2.04 µM; in the assay with OVCAR-8 ovarian, 14.3 µM; in the assay on SR leukemia, 3.09 µM. Further, the GI50 was 3.48 µM with MALME-3M melanoma, 10.6 µM in the assay with NCI-H23 lung, 6.01 µM with OVCAR-4 ovarian and 6.38 µM in the assay with SK-MEL-5 melanoma. The TGI in the assay with SF-295 CNS was over 100 µM; with BT-549 breast, 28.6 µM; with RPMI-8226 leukemia it was 72.2 µM; with MCF7 breast, 16.9 µM; with OVCAR-8 ovarian it was 75.7 µM; in the assay with SR leukemia, 11.4 µM. Also, the TGI with MALME-3M melanoma was 18.7 µM; in the assay with NCI-H23 lung, 36.2 µM; in the assay on OVCAR-4 ovarian, 18.7 µM; in the assay with SK-MEL-5 melanoma, 19.6 µM.

`CN(C)c1ccc(/C=N/NC(=O)c2cccc3ccccc23)c(Cl)c1`: the GI50 in the assay with SF-295 CNS is 0.588 µM; in the assay on BT-549 breast it was 0.733 µM; in the assay with RPMI-8226 leukemia, 2.19 µM; in the assay with MCF7 breast it was 0.348 µM; with OVCAR-8 ovarian, 3.29 µM; in the assay on SR leukemia, 0.36 µM. Moreover, the GI50 in the assay with MALME-3M melanoma was 1.29 µM; with NCI-H23 lung, 7.51 µM; in the assay on OVCAR-4 ovarian, 11.6 µM; with SK-MEL-5 melanoma, 0.922 µM. Further, the TGI with SF-295 CNS was 9.96 µM; in the assay on BT-549 breast, over 100 µM; in the assay on RPMI-8226 leukemia, over 100 µM; in the assay with MCF7 breast, over 100 µM; with OVCAR-8 ovarian, over 100 µM; in the assay on SR leukemia, over 100 µM. The TGI is 69.2 µM with MALME-3M melanoma, over 100 µM in the assay with NCI-H23 lung, 74.2 µM in the assay with OVCAR-4 ovarian and 24.1 µM in the assay with SK-MEL-5 melanoma.

With `Nc1ncnc2nn(C3OC(CO)C(O)C3O)nc12` (configuration not stated), the TGI in the assay on SF-295 CNS is over 89.3 µM; in the assay with BT-549 breast, over 100 µM; in the assay with RPMI-8226 leukemia, 26.5 µM; with MCF7 breast, over 62.3 µM; with OVCAR-8 ovarian it was over 100 µM; in the assay with SR leukemia, 16 µM. In addition, the TGI was over 100 µM in the assay with MALME-3M melanoma, 67.9 µM in the assay with NCI-H23 lung, over 100 µM with OVCAR-4 ovarian and 39.7 µM in the assay on SK-MEL-5 melanoma.

`CSc1nc(N)c2c(n1)NC(c1ccccc1)C1CCc3ccccc3C1=N2` (configuration not stated): the GI50 with SF-295 CNS was 25.6 µM; in the assay with BT-549 breast it was over 100 µM; with RPMI-8226 leukemia, 5.72 µM; in the assay on MCF7 breast, 52 µM; in the assay with OVCAR-8 ovarian it was 5.39 µM; in the assay with SR leukemia, 1.65 µM. Further, the GI50 with MALME-3M melanoma is over 100 µM; in the assay on NCI-H23 lung, 6.16 µM; with OVCAR-4 ovarian, 4.38 µM; in the assay with SK-MEL-5 melanoma, 4.79 µM. For the same molecule, the TGI in the assay on SF-295 CNS is over 100 µM; with BT-549 breast, over 100 µM; with RPMI-8226 leukemia, over 100 µM; in the assay with MCF7 breast, over 100 µM; with OVCAR-8 ovarian, over 100 µM; with SR leukemia it was 5.54 µM. In addition, the TGI with MALME-3M melanoma, in the assay with NCI-H23 lung, with OVCAR-4 ovarian and in the assay on SK-MEL-5 melanoma was over 100 µM each time.

Take `COc1ccc(-c2nc(-c3nc4ccc(C(F)(F)F)cc4[nH]3)c3ccccn23)cc1`: the GI50 was over 100 µM in the assay on SF-295 CNS; over 100 µM in the assay on BT-549 breast; 26.3 µM in the assay with MCF7 breast; 22.7 µM with OVCAR-8 ovarian; 32.3 µM with SR leukemia; over 100 µM in the assay with MALME-3M melanoma. The values for the GI50 in the assay with NCI-H23 lung and in the assay on SK-MEL-5 melanoma were over 100 µM and 47 µM, respectively. In addition, the TGI in the assay on SF-295 CNS, in the assay on BT-549 breast, with MCF7 breast, in the assay on OVCAR-8 ovarian, with SR leukemia and in the assay with MALME-3M melanoma was over 100 µM in each case. In addition, the TGI in the assay on NCI-H23 lung and in the assay with SK-MEL-5 melanoma was over 100 µM in each case.

As to `N#C/C(=C\c1cccc2cnccc12)N1N=NC2C=CC=CC21` (configuration not stated), the GI50 was 32.4 µM in the assay with SF-295 CNS; 2.97 µM in the assay with BT-549 breast; 0.557 µM in the assay with MCF7 breast; 3.32 µM in the assay with OVCAR-8 ovarian; 2.53 µM with SR leukemia; 3.24 µM with MALME-3M melanoma. Also, the GI50 in the assay with NCI-H23 lung was 3.27 µM; in the assay on OVCAR-4 ovarian, 2.92 µM; with SK-MEL-5 melanoma it was 3.19 µM. Also, the TGI in the assay with SF-295 CNS, with BT-549 breast, with MCF7 breast, with OVCAR-8 ovarian, in the assay on SR leukemia and with MALME-3M melanoma was over 100 µM each time. In addition, the TGI in the assay on NCI-H23 lung, in the assay with OVCAR-4 ovarian and with SK-MEL-5 melanoma was over 100 µM throughout.

With `CCCC#CCOC(=O)c1cc([N+](=O)[O-])cc([N+](=O)[O-])c1`, the TGI in the assay on SF-295 CNS, with BT-549 breast, with RPMI-8226 leukemia, in the assay on MCF7 breast, with OVCAR-8 ovarian and in the assay on SR leukemia was over 100 µM in each case. Besides, the TGI with MALME-3M melanoma is 69.1 µM; with NCI-H23 lung, over 100 µM; in the assay on SK-MEL-5 melanoma it was over 100 µM.

On to `COc1ccc2[nH]c(O)c(/C=c3/ccc4c(c3)N=C(c3ccc(F)cc3)N=4)c2c1`, for which the GI50 in the assay on SF-295 CNS is 7.33 µM; in the assay with BT-549 breast, 1.75 µM; in the assay with RPMI-8226 leukemia, 3.01 µM; in the assay on MCF7 breast, 4.53 µM; in the assay on OVCAR-8 ovarian, 2.07 µM; in the assay on SR leukemia, 4.95 µM. For the same molecule, the GI50 with MALME-3M melanoma was 2.58 µM; in the assay on NCI-H23 lung, 3.14 µM. In addition, the TGI in the assay on SF-295 CNS was over 100 µM; in the assay with BT-549 breast, 4.75 µM; in the assay on RPMI-8226 leukemia, over 100 µM; in the assay on MCF7 breast it was 93.3 µM; in the assay with OVCAR-8 ovarian, 5.32 µM; in the assay on SR leukemia, over 100 µM. The TGI with MALME-3M melanoma is 6.32 µM; in the assay with NCI-H23 lung, 28.1 µM.

Take `COc1ccc(C#CC2=C(c3cc(OC)c(OC)c(OC)c3)C(=O)OC2)cc1`: the GI50 in the assay with SF-295 CNS is 1.75 µM; with BT-549 breast it was 2.13 µM; in the assay on RPMI-8226 leukemia, 1.21 µM; in the assay on MCF7 breast, 0.948 µM; with OVCAR-8 ovarian it was 3.23 µM; in the assay with SR leukemia, 2.09 µM. Also, the GI50 with NCI-H23 lung was 5.77 µM; with OVCAR-4 ovarian, 1.51 µM; with SK-MEL-5 melanoma, 2.07 µM. The TGI in the assay on SF-295 CNS is 43.5 µM; in the assay on BT-549 breast, 15.7 µM; in the assay with RPMI-8226 leukemia it was 3.56 µM; in the assay with MCF7 breast, over 50 µM; in the assay with OVCAR-8 ovarian it was 22.5 µM; with SR leukemia it was over 50 µM. The values for the TGI with NCI-H23 lung, in the assay with OVCAR-4 ovarian and in the assay on SK-MEL-5 melanoma were 17.3 µM, over 50 µM and 11.9 µM, respectively.

Values taken from PubChem BioAssay (NCI).
